Values after ≈ are worked out from the molar mass of the structure shown.
Tests used:
B. distasonis 8503 = experiment: MIC, in vitro antibacterial activity (standard strains); format: cell-based; settings: Parabacteroides distasonis, 8503; 10^6 cells/ml; Gram -; read-out: MIC
[1] = system: Peptostreptococcus anaerobius KYA 27337; experiment: as above; format: cell-based; settings: Peptostreptococcus anaerobius, KYA27337; 10^6 cells/ml; Gram +; read-out: MIC
S. pneumoniae IID 552 = experiment: as above; format: cell-based; settings: Streptococcus pneumoniae, IID552; 10^6 cells/ml; Gram +; read-out: MIC
[2] = system: S. aureus IID 670 (Terajima); experiment: as above; format: cell-based, Staphylococcus aureus; settings: Staphylococcus aureus, IID670; 10^6 cells/ml; Gram +; read-out: MIC
P. aeruginosa IID 1210 = experiment: as above; format: cell-based, Pseudomonas aeruginosa; settings: Pseudomonas aeruginosa, IID1210; 10^6 cells/ml; Gram -; read-out: MIC
[3] = system: Pseudomonas aeruginosa V-1; experiment: as above; format: cell-based; settings: Pseudomonas aeruginosa, V1; 10^6 cells/ml; Gram -; read-out: MIC
[4] = system: Eubacterium lentum GAI 5242; experiment: as above; format: cell-based; settings: Eggerthella lenta, GAI5242; 10^6 cells/ml; Gram +; read-out: MIC
[5] = system: Morganella morganii IID 602; experiment: as above; format: cell-based; settings: Morganella morganii, IID602; 10^6 cells/ml; Gram -; read-out: MIC
P. aeruginosa IFO 12689 = experiment: as above; format: cell-based, Pseudomonas aeruginosa; settings: Pseudomonas aeruginosa, IFO12689; 10^6 cells/ml; Gram -; read-out: MIC
C. ramosum = experiment: as above; format: cell-based; settings: Thomasclavelia ramosa; 10^6 cells/ml; Gram +; read-out: MIC
[6] = system: Bacteroides fragilis GM 7000; experiment: as above; format: cell-based; settings: Bacteroides fragilis, GM7000; 10^6 cells/ml; Gram -; read-out: MIC
[7] = system: Peptococcus magnus KY 017; experiment: as above; format: cell-based; settings: Finegoldia magna, KY017; 10^6 cells/ml; Gram +; read-out: MIC
[8] = system: Yersinia enterocolitica IID 981; experiment: as above; format: cell-based; settings: Yersinia enterocolitica, IID981; 10^6 cells/ml; Gram -; read-out: MIC
E. faecalis IID 682 = experiment: as above; format: cell-based; settings: Enterococcus faecalis, IID682; 10^6 cells/ml; Gram +; read-out: MIC
C. perfringens KYA 13123 = experiment: microbe, parasite or virus in culture; format: cell-based; settings: Clostridium perfringens, KYA13123
E. coli ATCC 10536 = experiment: MIC, in vitro antibacterial activity (standard strains); format: cell-based, Escherichia coli; settings: Escherichia coli, ATCC10536; 10^6 cells/ml; Gram -; read-out: MIC
[9] = system: Fusobacterium mortiferum 4249; experiment: as above; format: cell-based; settings: Fusobacterium mortiferum, 4249; 10^6 cells/ml; Gram -; read-out: MIC
E. coli ML 4707 = experiment: as above; format: cell-based, Escherichia coli; settings: Escherichia coli, ML4707, 10^6 cells/ml; Gram -; Table 1; read-out: MIC
[10] = system: Serratia marcescens IID 618; experiment: as above; format: cell-based; settings: Serratia marcescens, IID618; 10^6 cells/ml; Gram -; read-out: MIC
K. pneumoniae 1-220S = experiment: as above; format: cell-based, Klebsiella pneumoniae; settings: Klebsiella pneumoniae, 1220S; 10^6 cells/ml; Gram -; read-out: MIC
[11] = system: Proteus vulgaris IFO 3167; experiment: as above; format: cell-based; settings: Proteus vulgaris, IFO3167; 10^6 cells/ml; Gram -; read-out: MIC
[12] = system: Propionibacterium acens 11828; experiment: as above; format: cell-based; settings: Propionibacterium, 11828; 10^6 cells/ml; Gram +; read-out: MIC
Pst. micros UPI 5464-1 = experiment: as above; format: cell-based; settings: Parvimonas micra, UPI54641; 10^6 cells/ml; Gram +; read-out: MIC
B. vulgatus KYA 29327 = experiment: as above; format: cell-based; settings: Phocaeicola vulgatus, KYA29327; 10^6 cells/ml; Gram -; read-out: MIC
[13] = system: Bacillus subtilis PCI 219; experiment: as above; format: cell-based; settings: Bacillus subtilis, PCI219; 10^6 cells/ml; Gram +; read-out: MIC
[14] = system: B. thetaiotaomicron (0661); experiment: as above; format: cell-based; settings: Bacteroides thetaiotaomicron; 10^6 cells/ml; Gram -; read-out: MIC
[15] = system: Citrobacter freundii IID 976; experiment: as above; format: cell-based; settings: Citrobacter freundii, IID976; 10^6 cells/ml; Gram -; read-out: MIC
S. epidermidis IID 866 = experiment: as above; format: cell-based; settings: Staphylococcus epidermidis, IID866; 10^6 cells/ml; Gram +; read-out: MIC
F. necrophorum S-45 = experiment: as above; format: cell-based; settings: Fusobacterium necrophorum, S45; 10^6 cells/ml; Gram -; read-out: MIC
F. varium KYA 8501 = experiment: as above; format: cell-based; settings: Fusobacterium varium, KYA8501; 10^6 cells/ml; Gram -; read-out: MIC
P. mirabilis IID 994 = experiment: as above; format: cell-based; settings: Proteus mirabilis, IID994; 10^6 cells/ml; Gram -; read-out: MIC
B. fragilis 0558 = experiment: as above; format: cell-based, Bacteroides fragilis; settings: Bacteroides fragilis, 0558; 10^6 cells/ml; Gram -; read-out: MIC

Structure (SMILES)	MIC (B. distasonis 8503)	MIC [1]	MIC (S. pneumoniae IID 552)	MIC [2]	MIC (P. aeruginosa IID 1210)	MIC [3]	MIC [4]	MIC [5]	MIC (P. aeruginosa IFO 12689)	MIC (C. ramosum)	MIC [6]	MIC [7]	MIC [8]	MIC (E. faecalis IID 682)	MIC (C. perfringens KYA 13123)	MIC (E. coli ATCC 10536)	MIC [9]	MIC (E. coli ML 4707)	MIC [10]	MIC (K. pneumoniae 1-220S)	further results
CC1CN(c2c(F)cc3c(=O)c(C(=O)O)cn(C4CC4)c3c2Cl)CC1N (stereo not drawn) [Example 7, 7-(3-Amino-4-methyl-1-pyrrolidinyl)-8-chloro-1-cyclopropyl-6-fluoro-1,4-dihydro-4-oxo-3-quinolinecarboxylic acid]	0.39 µg/mL (≈ 1.03 µM)	0.2 µg/mL (≈ 0.527 µM)	0.1 µg/mL (≈ 0.263 µM)	0.05 µg/mL (≈ 0.132 µM)	0.39 µg/mL (≈ 1.03 µM)	0.2 µg/mL (≈ 0.527 µM)	0.1 µg/mL (≈ 0.263 µM)	0.05 µg/mL (≈ 0.132 µM)	0.39 µg/mL (≈ 1.03 µM)	0.78 µg/mL (≈ 2.05 µM)	0.1 µg/mL (≈ 0.263 µM)	0.05 µg/mL (≈ 0.132 µM)	0.025 µg/mL (≈ 0.0658 µM)	0.1 µg/mL (≈ 0.263 µM)	0.1 µg/mL (≈ 0.263 µM)	0.0125 µg/mL (≈ 0.0329 µM)	0.2 µg/mL (≈ 0.527 µM)	0.0125 µg/mL (≈ 0.0329 µM)	0.05 µg/mL (≈ 0.132 µM)	0.05 µg/mL (≈ 0.132 µM)	MIC [11]: 0.0125 µg/mL (≈ 0.0329 µM); MIC [12]: 0.78 µg/mL (≈ 2.05 µM); MIC (Pst. micros UPI 5464-1): 0.1 µg/mL (≈ 0.263 µM); MIC (B. vulgatus KYA 29327): 0.1 µg/mL (≈ 0.263 µM); MIC [13]: 0.0125 µg/mL (≈ 0.0329 µM); MIC [14]: 0.2 µg/mL (≈ 0.527 µM); MIC [15]: 0.025 µg/mL (≈ 0.0658 µM); MIC (S. epidermidis IID 866): 0.05 µg/mL (≈ 0.132 µM); MIC (F. necrophorum S-45): 0.2 µg/mL (≈ 0.527 µM); MIC (F. varium KYA 8501): 0.78 µg/mL (≈ 2.05 µM); MIC (P. mirabilis IID 994): 0.025 µg/mL (≈ 0.0658 µM); MIC (B. fragilis 0558): 0.05 µg/mL (≈ 0.132 µM)
CCn1cc(C(=O)O)c(=O)c2cc(F)c(N3C[C@@H](N)[C@@H](C)C3)c(Cl)c21 (relative stereo) [Example 23, 7-(cis-3-Amino-4-methyl-1-pyrrolidinyl)-8-chloro-1-ethyl-6-fluoro-1,4-dihydro-4-oxo-3-quinolinecarboxylic acid]	3.13 µg/mL (≈ 8.51 µM)	1.56 µg/mL (≈ 4.24 µM)	0.78 µg/mL (≈ 2.12 µM)	0.2 µg/mL (≈ 0.544 µM)	6.25 µg/mL (≈ 17 µM)	0.39 µg/mL (≈ 1.06 µM)	1.56 µg/mL (≈ 4.24 µM)	0.1 µg/mL (≈ 0.272 µM)	1.56 µg/mL (≈ 4.24 µM)	6.25 µg/mL (≈ 17 µM)	0.78 µg/mL (≈ 2.12 µM)	0.78 µg/mL (≈ 2.12 µM)	0.05 µg/mL (≈ 0.136 µM)	0.78 µg/mL (≈ 2.12 µM)	0.78 µg/mL (≈ 2.12 µM)	0.05 µg/mL (≈ 0.136 µM)	1.56 µg/mL (≈ 4.24 µM)	0.05 µg/mL (≈ 0.136 µM)	0.05 µg/mL (≈ 0.136 µM)	0.1 µg/mL (≈ 0.272 µM)	MIC [11]: 0.05 µg/mL (≈ 0.136 µM); MIC [12]: 12.5 µg/mL (≈ 34 µM); MIC (Pst. micros UPI 5464-1): 0.78 µg/mL (≈ 2.12 µM); MIC (B. vulgatus KYA 29327): 1.56 µg/mL (≈ 4.24 µM); MIC [13]: 0.05 µg/mL (≈ 0.136 µM); MIC [14]: 1.56 µg/mL (≈ 4.24 µM); MIC [15]: 0.05 µg/mL (≈ 0.136 µM); MIC (S. epidermidis IID 866): 0.2 µg/mL (≈ 0.544 µM); MIC (F. necrophorum S-45): 1.56 µg/mL (≈ 4.24 µM); MIC (F. varium KYA 8501): 6.25 µg/mL (≈ 17 µM); MIC (P. mirabilis IID 994): 0.05 µg/mL (≈ 0.136 µM); MIC (B. fragilis 0558): 0.78 µg/mL (≈ 2.12 µM)
CNCC1CN(c2c(F)cc3c(=O)c(C(=O)O)cn(C4CC4)c3c2Cl)CC1C (stereo not drawn) [Example 12, 8-Chloro-1-cyclopropyl-6-fluoro-1,4-dihydro-7-(3-methylaminomethyl-4-methyl-1-pyrrolidinyl)-4-oxo-3-quinolinecarboxylic acid]	0.39 µg/mL (≈ 0.956 µM)	0.05 µg/mL (≈ 0.123 µM)	0.05 µg/mL (≈ 0.123 µM)	0.0125 µg/mL (≈ 0.0306 µM)	1.56 µg/mL (≈ 3.82 µM)	0.39 µg/mL (≈ 0.956 µM)	0.2 µg/mL (≈ 0.49 µM)	0.2 µg/mL (≈ 0.49 µM)	1.56 µg/mL (≈ 3.82 µM)	0.39 µg/mL (≈ 0.956 µM)	0.2 µg/mL (≈ 0.49 µM)	0.05 µg/mL (≈ 0.123 µM)	0.1 µg/mL (≈ 0.245 µM)	0.05 µg/mL (≈ 0.123 µM)	0.1 µg/mL (≈ 0.245 µM)	0.05 µg/mL (≈ 0.123 µM)	0.2 µg/mL (≈ 0.49 µM)	0.025 µg/mL (≈ 0.0613 µM)	0.2 µg/mL (≈ 0.49 µM)	0.1 µg/mL (≈ 0.245 µM)	MIC [11]: 0.05 µg/mL (≈ 0.123 µM); MIC [12]: 0.78 µg/mL (≈ 1.91 µM); MIC (Pst. micros UPI 5464-1): 0.39 µg/mL (≈ 0.956 µM); MIC (B. vulgatus KYA 29327): 0.2 µg/mL (≈ 0.49 µM); MIC [13]: 0.0125 µg/mL (≈ 0.0306 µM); MIC [14]: 0.39 µg/mL (≈ 0.956 µM); MIC [15]: 0.05 µg/mL (≈ 0.123 µM); MIC (S. epidermidis IID 866): 0.05 µg/mL (≈ 0.123 µM); MIC (F. necrophorum S-45): 0.2 µg/mL (≈ 0.49 µM); MIC (F. varium KYA 8501): 0.78 µg/mL (≈ 1.91 µM); MIC (P. mirabilis IID 994): 0.2 µg/mL (≈ 0.49 µM); MIC (B. fragilis 0558): 0.1 µg/mL (≈ 0.245 µM)
